Source: article PMC7033278, “A Nonpeptide Oxytocin Receptor Agonist for a Durable Relief of Inflammatory Pain” (Scientific Reports, 2020)
Entries after “also recorded” stand apart in the source; their conditions may differ. Read-outs that look alike come from different tables or passages of the source.

Experiments:
[1] = tested on: V2 vasopressin receptor (V2R); parameters: method as in PMID 30199637; conditions: cited from earlier work
[2] = thermodynamic solubility in PBS pH 7.4; assay type: physicochemical; conditions: PBS buffer, read-out: thermodynamic water solubility (S)
Protocol: Solubility of LIT-001 was determined from solution of about 1 mg of compound in 500 μl of PBS at pH 7.4. (Figs. 1, S1) The solution was stirred at room temperature for 24 h and centrifuged at 15.000 × g for 5 min. The supernatant was diluted with a mixture of acetonitrile and water and analyzed by HPLC with a diode detector (Gilson; Kinetex 2.6 μm C18 100 A 50 × 4.6 mm column). […] The lipophilicity (LogD7.4) of LIT-001 was measured using […] of a stock solution diluted with different concentrations of octanol and PBS to cover a LogP range from −2 to + 4.5 in a final volume of 1 ml. After stirring for 1 h at room temperature (≈ 20 °C), the samples were centrifuged and the different phases were analyzed by HPLC (Gilson; diode detector, Kinetex 2.6 μ C18 100 A 50 × 4.6 mm column).

V1bR (hV1BR) = tested on: V1bR (hV1BR); parameters: method as in PMID 30199637; conditions: cited from earlier work
CYP 3A4 = target: T1, CYP 3A4 (Homo sapiens, UniProt P08684); assay: cytochrome inhibition, human liver microsomes; assay type: in vitro ADME
T1 construct: phosphate buffer containing human liver microsomes (0.2 mg/ml); from tissue; host or cells: human liver microsomes
T1 sequence (P08684 whole entry): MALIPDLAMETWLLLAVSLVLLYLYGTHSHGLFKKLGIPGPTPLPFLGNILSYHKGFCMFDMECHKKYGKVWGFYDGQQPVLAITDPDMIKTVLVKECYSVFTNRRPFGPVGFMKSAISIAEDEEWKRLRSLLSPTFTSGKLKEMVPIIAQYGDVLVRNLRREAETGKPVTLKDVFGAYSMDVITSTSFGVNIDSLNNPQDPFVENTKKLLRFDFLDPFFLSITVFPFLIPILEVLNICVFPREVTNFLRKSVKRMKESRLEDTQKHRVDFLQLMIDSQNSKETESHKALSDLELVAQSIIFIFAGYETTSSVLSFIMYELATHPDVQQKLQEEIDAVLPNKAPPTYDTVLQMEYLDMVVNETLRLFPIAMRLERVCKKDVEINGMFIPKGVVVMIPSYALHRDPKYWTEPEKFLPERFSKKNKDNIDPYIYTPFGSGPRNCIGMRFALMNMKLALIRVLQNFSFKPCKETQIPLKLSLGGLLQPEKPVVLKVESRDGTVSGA
Protocol: (§1) Cytochrome inhibition by LIT-001 was studied as follows. A stock solution of LIT-001 at 10 mM in DMSO was prepared and stored at 4 °C. Solutions containing the cytochrome substrates and control inhibitors or LIT-001 were prepared. 2 μl of substrate-inhibitor solutions were mixed with 176 μl of phosphate buffer containing human liver microsomes (0.2 mg/ml), 1 mM of NADPH and 3 mM of MgCl2. Height concentrations were tested: 0.03; 0.1; 0.3; 1; 3; 10; 30 and 100 μM. The reaction was initiated by addition of the co-factor after 5 min of incubation at 37 °C. After one hour of incubation, 200 μl of acetonitrile were added to stop enzymatic reactions and solubilize the products. Different control inhibitors were used and supernatants were analyzed by LC-MS/MS (UHPLC separation; Shimadzu LC-MS 8030). • Furafylline (CYP 1A2 inhibitor): 0.03; 0.1; 0.3; 1; 3; 10; 30 and 100 μM • Sulfaphenazole (CYP 2C9 inhibitor): 0.03; 0.1; 0.3; 1; 3; 10; 30 and 100 μM • Tranylcypromine (CYP 2C19 inhibitor): 0.03; 0.1; 0.3; 1; 3; 10; 30 and 100 μM • Quinidine (CYP […] inhibitor): 0.003; 0.01; 0.1; 0.5; 1; 5; 10 and 50 μM • Kétoconazole (CYP 3A4 inhibitor): 0.003; 0.01; 0.1; 0.5; 1; 5; 10 and 50 μM

CYP 2D6 = target: T2, CYP 2D6 (Homo sapiens, UniProt P10635); assay: cytochrome inhibition, human liver microsomes; assay type: in vitro ADME; conditions: 0.03-100 μM
T2 construct: phosphate buffer containing human liver microsomes (0.2 mg/ml); from tissue; host or cells: human liver microsomes
T2 sequence (P10635 whole entry): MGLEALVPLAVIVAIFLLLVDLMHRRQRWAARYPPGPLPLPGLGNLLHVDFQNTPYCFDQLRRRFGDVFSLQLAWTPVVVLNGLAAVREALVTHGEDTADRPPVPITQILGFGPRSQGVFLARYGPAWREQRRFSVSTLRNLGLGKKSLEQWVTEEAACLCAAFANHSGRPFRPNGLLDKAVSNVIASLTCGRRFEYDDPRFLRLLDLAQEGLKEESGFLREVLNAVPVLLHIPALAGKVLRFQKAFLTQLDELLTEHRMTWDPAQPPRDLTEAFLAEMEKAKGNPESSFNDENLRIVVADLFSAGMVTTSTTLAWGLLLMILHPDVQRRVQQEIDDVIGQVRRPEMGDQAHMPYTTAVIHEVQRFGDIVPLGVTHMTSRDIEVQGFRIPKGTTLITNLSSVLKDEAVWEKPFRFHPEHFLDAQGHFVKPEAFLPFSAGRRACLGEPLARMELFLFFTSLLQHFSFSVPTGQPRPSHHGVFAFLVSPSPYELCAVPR
Protocol: as §1

CYP 2C9 = target: T3, CYP 2C9 (Homo sapiens, UniProt P11712); assay: cytochrome inhibition, human liver microsomes; assay type: in vitro ADME; conditions: 0.03-100 μM
T3 construct: phosphate buffer containing human liver microsomes (0.2 mg/ml); from tissue; host or cells: human liver microsomes
T3 sequence (P11712 whole entry): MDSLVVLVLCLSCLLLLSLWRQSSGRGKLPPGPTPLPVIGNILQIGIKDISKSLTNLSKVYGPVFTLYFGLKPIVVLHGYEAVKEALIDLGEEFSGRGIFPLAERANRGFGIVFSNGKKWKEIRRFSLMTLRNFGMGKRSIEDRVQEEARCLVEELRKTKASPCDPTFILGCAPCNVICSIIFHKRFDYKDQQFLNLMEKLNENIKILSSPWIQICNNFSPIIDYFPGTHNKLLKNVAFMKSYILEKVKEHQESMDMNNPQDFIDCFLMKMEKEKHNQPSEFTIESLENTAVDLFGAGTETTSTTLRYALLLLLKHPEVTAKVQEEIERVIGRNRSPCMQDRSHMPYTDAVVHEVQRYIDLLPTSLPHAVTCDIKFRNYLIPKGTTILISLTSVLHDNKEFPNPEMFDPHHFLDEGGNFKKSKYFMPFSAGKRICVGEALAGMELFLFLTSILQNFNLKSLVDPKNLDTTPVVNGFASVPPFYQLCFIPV
Protocol: as §1

CYP 1A2 = target: T4, CYP 1A2 (Homo sapiens, UniProt P05177); assay: cytochrome inhibition, human liver microsomes; assay type: in vitro ADME
T4 construct: phosphate buffer containing human liver microsomes (0.2 mg/ml); from tissue; host or cells: human liver microsomes
T4 sequence (P05177 whole entry): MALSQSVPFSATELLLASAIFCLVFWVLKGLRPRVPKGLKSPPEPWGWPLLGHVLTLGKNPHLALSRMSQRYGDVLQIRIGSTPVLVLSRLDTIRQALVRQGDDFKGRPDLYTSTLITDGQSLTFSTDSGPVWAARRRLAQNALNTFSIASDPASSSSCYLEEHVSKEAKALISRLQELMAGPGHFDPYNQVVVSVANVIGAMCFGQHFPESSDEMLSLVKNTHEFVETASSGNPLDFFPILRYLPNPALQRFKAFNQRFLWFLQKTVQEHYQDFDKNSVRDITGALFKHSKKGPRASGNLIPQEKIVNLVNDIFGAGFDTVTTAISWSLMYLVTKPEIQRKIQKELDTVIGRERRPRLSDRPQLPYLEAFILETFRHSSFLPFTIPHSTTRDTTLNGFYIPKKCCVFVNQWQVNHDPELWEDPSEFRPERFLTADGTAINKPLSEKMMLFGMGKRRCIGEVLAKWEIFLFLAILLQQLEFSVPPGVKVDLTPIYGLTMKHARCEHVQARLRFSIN
Protocol: as §1

CYP 2C19 = target: T5, CYP 2C19 (Homo sapiens, UniProt P33261); assay: cytochrome inhibition, human liver microsomes; assay type: in vitro ADME
T5 construct: phosphate buffer containing human liver microsomes (0.2 mg/ml); from tissue; host or cells: human liver microsomes
T5 sequence (P33261 whole entry): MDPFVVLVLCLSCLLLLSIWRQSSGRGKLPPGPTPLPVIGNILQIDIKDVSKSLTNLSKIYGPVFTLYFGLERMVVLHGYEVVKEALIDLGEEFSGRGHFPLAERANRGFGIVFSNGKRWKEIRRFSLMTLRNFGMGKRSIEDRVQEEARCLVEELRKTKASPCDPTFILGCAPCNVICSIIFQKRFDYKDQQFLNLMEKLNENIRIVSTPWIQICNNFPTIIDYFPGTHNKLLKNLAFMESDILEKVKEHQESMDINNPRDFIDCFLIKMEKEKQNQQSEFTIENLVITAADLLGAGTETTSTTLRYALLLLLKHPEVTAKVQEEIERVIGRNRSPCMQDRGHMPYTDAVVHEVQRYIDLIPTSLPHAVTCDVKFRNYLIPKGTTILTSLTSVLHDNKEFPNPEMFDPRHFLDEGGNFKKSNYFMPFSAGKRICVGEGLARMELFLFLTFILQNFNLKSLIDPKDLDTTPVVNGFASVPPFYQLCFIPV
Protocol: as §1

[3] = target: T6, ionotropic TRPV1 receptor (Homo sapiens, UniProt Q8NER1); assay: Eurofins functional profiling, TRPV1 agonist/antagonist; assay type: cell-based; conditions: 5 μM
T6 construct: Eurofins (contract assay)
T6 sequence (Q8NER1 whole entry): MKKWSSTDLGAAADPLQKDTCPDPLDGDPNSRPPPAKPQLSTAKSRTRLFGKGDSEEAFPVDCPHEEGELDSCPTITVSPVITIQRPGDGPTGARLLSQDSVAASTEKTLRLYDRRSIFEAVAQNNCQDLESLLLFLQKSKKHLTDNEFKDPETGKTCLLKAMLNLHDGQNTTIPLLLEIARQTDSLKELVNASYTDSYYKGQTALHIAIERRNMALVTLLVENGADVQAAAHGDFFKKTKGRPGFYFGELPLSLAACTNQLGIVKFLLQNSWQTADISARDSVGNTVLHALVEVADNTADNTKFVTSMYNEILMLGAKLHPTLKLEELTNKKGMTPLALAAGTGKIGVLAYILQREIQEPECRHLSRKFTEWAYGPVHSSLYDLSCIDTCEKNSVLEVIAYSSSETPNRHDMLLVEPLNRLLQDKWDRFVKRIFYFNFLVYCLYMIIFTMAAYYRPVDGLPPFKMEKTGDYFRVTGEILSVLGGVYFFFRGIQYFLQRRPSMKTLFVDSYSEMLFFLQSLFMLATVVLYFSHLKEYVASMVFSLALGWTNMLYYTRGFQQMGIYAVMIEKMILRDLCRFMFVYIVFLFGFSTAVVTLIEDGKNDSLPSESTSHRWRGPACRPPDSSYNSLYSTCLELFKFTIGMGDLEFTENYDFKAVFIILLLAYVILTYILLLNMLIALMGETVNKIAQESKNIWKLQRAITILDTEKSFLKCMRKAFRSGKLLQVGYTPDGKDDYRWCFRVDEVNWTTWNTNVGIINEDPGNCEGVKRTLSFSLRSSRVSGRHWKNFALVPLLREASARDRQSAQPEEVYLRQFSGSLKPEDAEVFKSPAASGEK
Protocol: In vitro profiling of LIT-001 was performed by Eurofins as described in the Eurofins SafetyScreen-Functional panel, 2018[31]. The hepatotoxicity of LIT-001 was studied with cryo-preserved mouse hepatocytes. After unfreezing (optiTHAW and optiINCUBATE media, Xenotech) and cell viability control, cells (2 × 10^6 cells/ml) were dispatched in 96 well microtiterplates. LIT-001 was added to reach a concentration 1 μM in the presence of 1 × 10^6 cells/mL in a volume of 100 μl/well. The incubation was stopped at 4, 20, 40, 80 and 120 min in adding 100 μl of acetonitrile at 0 °C. A positive control was treated in the same conditions. All samples were analyzed by UHPLC coupled to a mass spectrometer (Shimadzu LC-MS 8030).

mOTR = tested on: mOTR; parameters: method as in PMID 30199637; conditions: mouse receptor, cited from earlier work

Structure (SMILES): Cc1cc(C(=O)N2Cc3cnn(C)c3Nc3ccccc32)ccc1CNC(=O)N1CCC[C@H]1C(=S)N(C)C [LIT-001]
- affinity for V2R [1]: low micromolar affinity
- solubility thermodynamic at 24 h ([2]; pH 7.4, aqueous buffer, thermodynamic from solid): 530 ± 30 µM
- solubility thermodynamic at 24 h ([2]; pH 7.4): 340 µg/mL
- EC50 (hV1BR) (V1bR (hV1BR); agonist mode): non significant
- agonist or antagonist effect on V1bR (V1bR (hV1BR)): devoid of agonist or antagonist effect
- IC50 (CYP 3A4): 11 µM
- interaction with CYP 2D6 (CYP 2D6): did not interact
- interaction with CYP 2C9 (CYP 2C9): did not interact
- IC50 (CYP 1A2): 51 µM
- IC50 (CYP 2C19): 21 µM
- agonist or antagonist activity at TRPV1 receptor [3]: No significant agonist or antagonist; also recorded: neither LIT-001 nor the OT antagonist L-368,699 displayed any significant agonist or antagonist activity
- EC50 (mOTR; agonist): 0.018 µM
- Emax (mOTR) (mOTR; efficacy): 95%
